Reference: the supplement of paper PMC10307832

Columns and labels:
Assay in all cases: relative viability (nuclei count vs DMSO), 5 days (fraction); higher = more cells survive
XMD14-99 + Dasatinib = compound: CN1CCN(CC1)C2=CC(=C(C=C2)NC3=NC(=C(S3)C(=O)C4=C(C=CC=C4Cl)Cl)N)OC [XMD14-99] + Cc1nc(Nc2ncc(C(=O)Nc3c(C)cccc3Cl)s2)cc(N2CCN(CCO)CC2)n1 [Dasatinib] (partner 0.075 µM)
Method in brief: (§1)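 Lung cancer cell lines were pin-tool dosed in 1536-well plates on the day after seeding, with either a lone drug or a fixed anchor-drug dose plus five library-drug doses (not always all listed) in √10 steps. Nuclei were counted on 4× images after 5 days. Relative viability is the ratio of treated-well to vehicle-well nuclei counts, with each value a median of duplicate plates.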

AZD1208 + Alpelisib = compound: N[C@@H]1CCCN(c2c(/C=C3\SC(=O)NC3=O)cccc2-c2ccccc2)C1 [AZD1208] + Cc1nc(NC(=O)N2CCC[C@H]2C(N)=O)sc1-c1ccnc(C(C)(C)C(F)(F)F)c1 [Alpelisib] (partner 2 µM)
Method in brief: as §1

AZD1208 + Vorinostat = compound: N[C@@H]1CCCN(c2c(/C=C3\SC(=O)NC3=O)cccc2-c2ccccc2)C1 [AZD1208] + O=C(CCCCCCC(=O)Nc1ccccc1)NO [Vorinostat] (partner 1 µM)
Method in brief: as §1

AZD1208 + OSI-027 = compound: N[C@@H]1CCCN(c2c(/C=C3\SC(=O)NC3=O)cccc2-c2ccccc2)C1 [AZD1208] + COc1cccc2cc(-c3nc([C@H]4CC[C@H](C(=O)O)CC4)n4ncnc(N)c34)[nH]c12 [OSI-027] (partner 0.5 µM)
Method in brief: as §1

| Cell Line | relative viability (XMD14-99 + Dasatinib; first compound 0.08 µM) | relative viability (XMD14-99 + Dasatinib; first compound 0.8 µM) | relative viability (XMD14-99 + Dasatinib; first compound 2.53 µM) | relative viability (XMD14-99 + Dasatinib; first compound 8 µM) | relative viability (AZD1208 + Alpelisib; first compound 0.08 µM) | relative viability (AZD1208 + Alpelisib; first compound 0.253 µM) | relative viability (AZD1208 + Alpelisib; first compound 0.8 µM) | relative viability (AZD1208 + Alpelisib; first compound 2.53 µM) | relative viability (AZD1208 + Alpelisib; first compound 8 µM) | relative viability (AZD1208 + Vorinostat; first compound 0.08 µM) | relative viability (AZD1208 + Vorinostat; first compound 0.253 µM) | relative viability (AZD1208 + Vorinostat; first compound 0.8 µM) | relative viability (AZD1208 + Vorinostat; first compound 2.53 µM) | relative viability (AZD1208 + Vorinostat; first compound 8 µM) | relative viability (AZD1208 + OSI-027; first compound 0.08 µM) | relative viability (AZD1208 + OSI-027; first compound 0.253 µM) | relative viability (AZD1208 + OSI-027; first compound 0.8 µM) | relative viability (AZD1208 + OSI-027; first compound 2.53 µM) | relative viability (AZD1208 + OSI-027; first compound 8 µM) |
| --- | --- | --- | --- | --- | --- | --- | --- | --- | --- | --- | --- | --- | --- | --- | --- | --- | --- | --- | --- |
| NCI-H358 | 0.157 | 0.175 | 0.151 | 0.141 | 0.64 | 0.709 | 0.546 | 0.592 | 0.569 | 0.719 | 0.646 | 0.576 | 0.678 | 0.618 | 0.649 | 0.738 | 0.626 | 0.695 | 0.472 |
| EPLC-272H | 0.323 | 0.325 | 0.402 | 0.392 | 0.938 | 0.949 | 0.807 | 0.807 | 0.894 | 0.405 | 0.505 | 0.38 | 0.333 | 0.443 | 0.255 | 0.289 | 0.276 | 0.247 | 0.281 |
| NCI-H1395 | 0.391 | 0.425 | 0.457 | 0.363 | 0.925 | 1.07 | 1.1 | 1.24 | 0.851 | 0.974 | 0.731 | 0.632 | 0.698 | 0.546 | 0.624 | 0.569 | 0.578 | 0.624 | 0.491 |
| NCI-H2228 | 0.376 | 0.451 | 0.405 | 0.148 | 0.706 | 0.629 | 0.609 |  | 0.466 | 0.647 | 0.624 | 0.793 | 0.448 | 0.464 | 0.5 | 0.586 | 0.406 | 0.308 | 0.304 |
| LXF-289 | 0.238 | 0.173 | 0.208 | 0.204 | 1.05 | 1.13 | 1.01 | 1.03 | 1.03 | 0.791 | 0.849 | 0.701 | 0.715 | 0.832 | 0.821 | 0.814 | 0.602 | 0.647 | 0.648 |
| NCI-H2023 | 0.536 | 0.607 | 0.739 | 0.404 | 0.512 | 0.448 | 0.396 | 0.461 | 0.45 | 0.627 | 0.769 | 0.517 | 0.689 | 0.571 | 0.342 | 0.339 | 0.324 | 0.316 | 0.253 |
| NCI-H3122 | 0.81 | 0.745 | 0.754 | 0.503 | 0.686 | 0.68 | 0.647 | 0.583 | 0.722 | 0.97 | 0.943 | 0.924 | 1.05 | 0.524 | 0.842 | 0.856 | 0.768 | 0.862 | 0.606 |
| NCI-H1755 | 0.404 | 0.405 | 0.4 | 0.369 | 0.933 | 1.02 | 0.858 | 0.859 | 0.741 | 0.79 | 0.893 | 0.604 | 0.685 | 0.555 | 0.69 | 0.617 | 0.582 | 0.59 | 0.437 |
